From patent US7989630B2, “Radiotracers for imaging P-glycoprotein function” (National Institutes of Health Represented by the Secretary …, priority 2008, dated 2011)
Structures can show the parent of a compound that is named as a salt.

Columns and labels:
CYP3A4 = conditions: mouse, in vivo
Experimental: Ex vivo studies were performed in wild-type (WT) and P-gp knockout (KO) mice. […] Whole brain and plasma sample radioactivity were measured with γ-counting and HPLC analysis.

P-gp [1] = assay: Monkey brain PET with [^11C]loperamide, baseline and tariquidar (additional experiments)
[2] = Plasma analysis of [^11C]loperamide in nonhuman primates (arterial plasma, radio-HPLC); conditions: for time at which parent radiotracer was 50% of total plasma activity: monkey arterial plasma
Description: (§1) For tariquidar only a blockade scan was acquired and compared to the baseline scans of three other animals.

[3] = Arterial plasma parent input function and plasma free fraction, [^11C]loperamide with tariquidar; type: in vivo; conditions: monkey
Experimental: Arterial plasma parent input function and plasma free fraction (fl) were determined in monkey.

P-gp [4] = tested on: P-gp
Experimental: Serial dynamic images were acquired for 100 min, with frames of 6×20 s, 5×1 min, 4×2 min, 3×5 min, 3×10 min, and 2×20 min. […] The small mouse brain causes little scatter and attenuation of the gamma emissions from carbon-11, and, thus, no correction for scatter or attenuation was performed.

P-gp [5] = assay: PET imaging of [^11C]loperamide in monkey brain with P-gp inhibitors; conditions: for increase of brain activity after [^11C]loperamide: monkey; for increase of peak radioactivity in brain after [^11C]loperamide: inhibitor 8.0 mg/kg i.v. 30 min before radiotracer, monkey (FIG. 3)
Experimental: as §1
PET images were co-registered to a magnetic resonance image template of a monkey brain. Tomographic images were analyzed with PMOD 2.7 (pixel-wise modeling computer software; PMOD Group, Adliswil, Switzerland). Regions of interest were drawn on coronal slices. Decay-corrected radioactivity was expressed as % standardized uptake value (% SUV), which normalizes for injected activity and body weight. % SUV=(% injected activity per cm3 brain)×(g body weight).

P-gp [6] = conditions: P-gp knockout mice, 30 min after injection of [^11C]loperamide
Experimental: At 30 min after radiotracer injection, anticoagulated blood was removed by cardiac puncture, and the brain was harvested. Plasma was separated from whole blood by centrifugation at 1,800 g for 1 min. […] The homogenates were measured in the y-counter to calculate the % recovery of radioactivity into the acetonitrile extracts. The homogenates were then centrifuged at 10,000×g for 1 min. […] The eluate was monitored with an in-line flow-through Na(Tl) scintillation detector (Bioscan, Washington D.C., USA). Plasma parent and radiometabolite concentrations were calculated as the product of the radio-HPLC fraction of interest and the total plasma radioactivity concentration (dpm/mL).

δ opiate receptor = δ opiate receptor (Homo sapiens, UniProt P41143); assay: In vitro receptor binding, cloned human δ opiate receptor
Sequence of δ opiate receptor (P41143 whole entry): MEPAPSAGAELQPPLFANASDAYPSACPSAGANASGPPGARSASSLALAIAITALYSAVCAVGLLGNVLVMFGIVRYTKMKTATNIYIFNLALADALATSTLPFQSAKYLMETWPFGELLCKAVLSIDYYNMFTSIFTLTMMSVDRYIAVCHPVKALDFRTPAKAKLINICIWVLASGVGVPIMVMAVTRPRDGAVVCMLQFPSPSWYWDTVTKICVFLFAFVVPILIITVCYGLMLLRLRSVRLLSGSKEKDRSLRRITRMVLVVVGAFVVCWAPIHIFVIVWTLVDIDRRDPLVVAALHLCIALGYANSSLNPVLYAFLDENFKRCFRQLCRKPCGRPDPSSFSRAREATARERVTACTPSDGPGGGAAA
Description: (§2) Detailed binding protocols are available on the web site for The National Institute of Mental Health Psychoactive Drug Screening Program.

P-gp [7] = target: P-gp (Mus musculus, UniProt P21447); conditions: 30 min after [^11C]loperamide i.v.
Sequence of P-gp (Mus musculus, UniProt P21447) (P21447 whole entry): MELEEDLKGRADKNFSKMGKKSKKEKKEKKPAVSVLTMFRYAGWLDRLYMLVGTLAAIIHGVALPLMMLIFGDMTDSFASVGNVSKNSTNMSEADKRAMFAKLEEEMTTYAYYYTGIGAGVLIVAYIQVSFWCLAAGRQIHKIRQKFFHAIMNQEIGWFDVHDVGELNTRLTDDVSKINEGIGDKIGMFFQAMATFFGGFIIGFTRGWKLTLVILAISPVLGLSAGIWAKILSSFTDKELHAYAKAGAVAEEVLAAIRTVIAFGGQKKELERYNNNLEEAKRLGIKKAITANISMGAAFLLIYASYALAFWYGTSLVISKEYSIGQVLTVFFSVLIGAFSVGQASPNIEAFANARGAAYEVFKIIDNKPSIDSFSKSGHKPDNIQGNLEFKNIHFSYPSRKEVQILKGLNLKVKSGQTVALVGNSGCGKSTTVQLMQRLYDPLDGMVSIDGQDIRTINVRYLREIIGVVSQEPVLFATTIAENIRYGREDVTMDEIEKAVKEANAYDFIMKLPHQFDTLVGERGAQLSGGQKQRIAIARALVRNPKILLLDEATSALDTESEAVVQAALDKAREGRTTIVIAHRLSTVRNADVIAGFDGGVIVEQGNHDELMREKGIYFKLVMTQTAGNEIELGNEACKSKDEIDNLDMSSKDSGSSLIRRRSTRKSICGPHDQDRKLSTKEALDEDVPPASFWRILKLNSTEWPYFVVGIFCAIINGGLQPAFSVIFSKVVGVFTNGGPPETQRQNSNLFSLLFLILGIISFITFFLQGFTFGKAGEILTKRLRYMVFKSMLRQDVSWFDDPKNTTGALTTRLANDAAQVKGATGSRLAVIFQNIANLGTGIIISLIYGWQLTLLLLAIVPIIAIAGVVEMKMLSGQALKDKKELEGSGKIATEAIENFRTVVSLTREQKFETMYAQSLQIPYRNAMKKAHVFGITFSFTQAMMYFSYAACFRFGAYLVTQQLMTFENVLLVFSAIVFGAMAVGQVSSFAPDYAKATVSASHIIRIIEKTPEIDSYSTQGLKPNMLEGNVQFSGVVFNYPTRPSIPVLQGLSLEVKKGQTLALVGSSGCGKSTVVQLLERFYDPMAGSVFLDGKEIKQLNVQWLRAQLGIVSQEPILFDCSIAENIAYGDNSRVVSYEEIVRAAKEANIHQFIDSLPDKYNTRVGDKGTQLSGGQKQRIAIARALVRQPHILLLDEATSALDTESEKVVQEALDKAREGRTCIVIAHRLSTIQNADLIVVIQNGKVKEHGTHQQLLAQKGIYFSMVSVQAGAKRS
Description: (§3) The most lipophilic radiometabolite was identified by radio-HPLC co-elution as N-desmethylloperamide (dLop) (data not shown).

P-gp [8] = conditions: KO mice, 30 min after [^11C]loperamide i.v.
Description: as §3

κ opiate receptor = κ opiate receptor (Homo sapiens, UniProt P41145); assay: biochemical; conditions: agonist radiotracer ^3H-U69,593; mean ± SD of four competitive binding experiments
Sequence of κ opiate receptor (P41145 whole entry): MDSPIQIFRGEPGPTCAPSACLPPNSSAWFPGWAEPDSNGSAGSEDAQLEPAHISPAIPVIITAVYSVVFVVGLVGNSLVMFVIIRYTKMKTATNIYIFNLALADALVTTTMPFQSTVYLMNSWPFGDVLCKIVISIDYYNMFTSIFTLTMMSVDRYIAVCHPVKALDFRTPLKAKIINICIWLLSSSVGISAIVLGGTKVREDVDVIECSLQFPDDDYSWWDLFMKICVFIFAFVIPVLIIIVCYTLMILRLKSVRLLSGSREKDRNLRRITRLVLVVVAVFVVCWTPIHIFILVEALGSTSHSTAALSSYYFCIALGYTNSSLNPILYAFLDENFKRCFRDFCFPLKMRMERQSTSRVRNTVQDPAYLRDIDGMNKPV
Description: as §2

P-gp [9] = assay: PET imaging of [^11C]dLop in monkey brain, baseline and P-gp blocked with DCPQ; conditions: for increase of regional radioactivity concentration relative to baseline: DCPQ 16 mg/kg i.v. before [^11C]dLop, averaged 25-50 min
Experimental: Scatter and attenuation correction were applied. Images were analyzed with PMOD. Regions of interest were drawn on coronal slices for eight brain regions (frontal cortex, anterior cingulate, temporal cortex, parietal cortex, hippocampus, occipital cortex, putamen and cerebellum). Activity was decay-corrected to the time of injection and expressed as % SUV. […]
Time-radioactivity data were collected for the same eight brain regions as previously described.

μ opiate receptor = μ opiate receptor (Homo sapiens, UniProt P35372); type: binding
Sequence of μ opiate receptor (P35372 whole entry): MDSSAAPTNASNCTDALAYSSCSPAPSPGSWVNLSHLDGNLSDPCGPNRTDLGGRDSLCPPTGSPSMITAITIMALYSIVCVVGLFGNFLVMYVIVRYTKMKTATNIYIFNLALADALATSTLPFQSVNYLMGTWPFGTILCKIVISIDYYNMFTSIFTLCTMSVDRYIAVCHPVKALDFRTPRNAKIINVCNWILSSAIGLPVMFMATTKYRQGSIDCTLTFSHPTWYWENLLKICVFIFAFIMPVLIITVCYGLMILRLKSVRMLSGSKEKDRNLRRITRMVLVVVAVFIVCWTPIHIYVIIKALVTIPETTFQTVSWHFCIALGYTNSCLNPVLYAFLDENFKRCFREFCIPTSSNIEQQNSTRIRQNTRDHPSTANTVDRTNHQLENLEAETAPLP
Description: as §2

P-gp [10] = assay: P-gp function imaged with [^11C]dLop in monkeys, brain study; type: in vivo; conditions: naloxone 5 mg/kg or loperamide 1 mg/kg at 30 min after [^11C]dLop, P-gp blocked monkeys
Experimental: Displacement agents were given at 30 min after the radiotracer. A subset of monkeys also had arterial blood sampling (n=5) and [^15O]H2O PET scans (n=4) to measure the concentration of parent radiotracer in plasma and cerebral blood flow, respectively.

[11] = Plasma free fraction (fP) by ultracentrifugation; type: in vitro ADME; conditions: fP of [^11C]loperamide, monkey
P-gp [12] = conditions: iv, 8 mg/kg
P-gp [13] = conditions: Ekins et al. 2002 (DCPQ); Martin et al. 1999 (tariquidar); cited from earlier work
P-gp [14] = conditions: DCPQ 16 mg/kg i.v., monkeys
Experimental: The brains of three P-gp KO and three WT mice were scanned for 90 min after administration of [^11C]dLop (˜580 μCi, i.v.). Mice injected with [^11C]dLop (600 μCi, i.v.) were also sacrificed at 30 min, and acetonitrile extracts of blood and brain analyzed with reverse phase HPLC.

[15] = inhibitor 8 mg/kg i.v. 30 min before radiotracer

## CC(=O)N1CCN(c2ccc(OCC3COC(Cn4ccnc4)(c4ccc(Cl)cc4Cl)O3)cc2)CC1 (stereo not shown) [ketoconazole]
CYP3A4
  decrease of radiometabolite dLop in plasma: ~70%
  increase of [^11C]dLop concentration in plasma: ~240%
  increase of [^11C]loperamide concentration in plasma: ~100%

## CN([11CH3])C(=O)C(CCN1CCC(O)(c2ccc(Cl)cc2)CC1)(c1ccccc1)c1ccccc1 [[^11C]loperamide, 4-(4-(4-chlorophenyl)-4-hydroxypiperidin-1-yl)-N,N-dimethyl-2,2-diphenylbutanamide]
P-gp [1]; baseline
  brain activity, baseline: 40 % standard uptake value
[2]; after DCPQ 8 mg/kg i.v.
  time at which parent radiotracer was 50% of total plasma activity: 20 min
[2]; baseline
  time at which parent radiotracer was 50% of total plasma activity: 17 min
[2]; baseline, listed as [^11C]Loperamide
  time at which parent radiotracer was 50% of total plasma activity: about 20 min
[3]; baseline
  time over which parent plasma composition decreased to 50%: 17 min
P-gp [4]; cerebellum
  maximal activity in cerebellum, knockout vs wild type mice (PET): 1.9 fold
P-gp [4]; forebrain
  maximal activity in forebrain, knockout vs wild type mice (PET): 2.7 fold
P-gp [4]; whole brains
  brain activity, knockout vs wild type mice (PET): about three-fold
P-gp [5]; three monkeys, 120 min scan
  brain uptake under baseline conditions: ~40 % SUV
P-gp [6]
  share of brain radioactivity after [^11C]loperamide: ~50%

## CNC(=O)C(CCN1CCC(O)(c2ccc(Cl)cc2)CC1)(c1ccccc1)c1ccccc1 [dLop, 4-(4-(4-Chlorophenyl)-4-hydroxypiperidin-1-yl)-2,2-diphenyl-N-methyl-butanamide]
δ opiate receptor
  Ki: 328 ± 22 nM
P-gp [7]; WT mice
  Brain composition: 4.3%
P-gp [7]; brain
  concentration increase over control (KO vs WT): 59 fold
P-gp [8]
  Brain composition: 21%
κ opiate receptor
  Ki: 73 ± 7 nM
P-gp [9]; given 30 min after [^11C]dLop to DCPQ-treated monkey (naloxone 5 mg/kg i.v.; loperamide or dLop 1 mg/kg i.v.)
  effect on washout of radioactivity from brain regions: no discernible effect
μ opiate receptor
  Ki: 0.56 ± 0.05 nM

## C=CCN1CC[C@]23c4c5ccc(O)c4O[C@H]2C(=O)CC[C@@]3(O)[C@H]1C5 [naloxone, reference compound]
P-gp [10]
  displacement of the radiotracer from brain: Neither naloxone nor loperamide caused any apparent displacement

## COc1cc2c(cc1OC)CN(CCc1ccc(NC(=O)c3cc(OC)c(OC)cc3NC(=O)c3cnc4ccccc4c3)cc1)CC2 [Tariquidar]
P-gp [1]; tariquidar 8 mg/kg i.v.
  increase of brain activity after [^11C]loperamide: about 3.7 fold
[11]; inhibitor 8.0 mg/kg
  Plasma free fraction (fP), Δ relative to baseline: negligibly affected
[3]; rhesus, in vivo
  time over which parent plasma composition decreased to 50%: 20 min
P-gp [12]
  brain activity after P-gp inhibition: 146 % standard uptake value
P-gp [13]
  affinity to the P-gp: 5.1 nM
P-gp [5]; [15]
  increase of brain activity after [^11C]loperamide: equipotent with DCPQ
P-gp [5]
  increase of peak radioactivity in brain after [^11C]loperamide: 3.7 fold
P-gp [5]; inhibitor 8 mg/kg i.v. 30 min before radiotracer, listed as tariquidar
  increase of brain activity after [^11C]loperamide: ~3.5 fold

## CN(C)C(=O)C(CCN1CCC(O)(c2ccc(Cl)cc2)CC1)(c1ccccc1)c1ccccc1 [Loperamide, 4-(p-chlorophenyl)-4-hydroxy-N,N-dimethyl-α,α-diphenyl-1-piperidinebutyramide hydrochloride, reference compound]
P-gp [8]
  Brain composition: 63%
P-gp [10]
  displacement of the radiotracer from brain: Neither naloxone nor loperamide caused any apparent displacement

## Cl.Cl.Cl.O[C@@H](COc1cccc2ncccc12)CN1CCN(C2c3ccccc3C3C(c4ccccc42)C3(Cl)Cl)CC1 (stereo partly drawn) [DCPQ, (2R)-anti-5-{3-[4-(10,11-dichloromethanodibenzosuber-5-yl)piperazin-1-yl]-2-hydroxypropoxy}quinoline trihydrochloride]
P-gp [14]
  increase of brain radioactivity after [^11C]dLop: more than 7 fold
[11]; inhibitor 1.0 mg/kg
  Plasma free fraction (fP), P-gp Inhibition: 5.7 ± 0.3
[11]; inhibitor 3.0 mg/kg
  Plasma free fraction (fP), P-gp Inhibition: 1.4 ± 0.5
[11]; inhibitor 8.0 mg/kg
  Plasma free fraction (fP), P-gp Inhibition: 4.4 ± 1.4
P-gp [9]; DCPQ 0-16 mg/kg i.v. before [^11C]dLop, one monkey
  dependence of regional brain radioactivity uptake on dose: increased almost linearly with dose of DCPQ
P-gp [9]; DCPQ 8 mg/kg i.v. before [^11C]dLop, monkey
  ratio of maximal brain radioactivity to that in the baseline experiment: about five
P-gp [9]; DCPQ 8 mg/kg or 16 mg/kg i.v. before [^11C]dLop, monkey
  effect on uptake of radioactivity into pituitary: unaffected
P-gp [9]; cerebellum, monkey
  increase of regional radioactivity concentration relative to baseline: thirteen-fold
P-gp [9]; frontal cortex, monkey
  increase of regional radioactivity concentration relative to baseline: seven-fold
[2]; DCPQ 8 mg/kg i.v. vs baseline, monkey
  increase in plasma exposure of [^11C]loperamide: 16%
P-gp [13]
  affinity to the P-gp: 5.3 nM
P-gp [5]; inhibitor 1 mg/kg i.v. 30 min before radiotracer
  increase of brain activity after [^11C]loperamide: minimal effect
P-gp [5]; inhibitor 3 mg/kg i.v. 30 min before radiotracer
  increase of brain activity after [^11C]loperamide: ~2.5 fold
P-gp [5]; [15]
  increase of brain activity after [^11C]loperamide: ~3.5 fold
P-gp [5]
  increase of peak radioactivity in brain after [^11C]loperamide: 3.7 fold
